One data set deals with SW620 cells. The experiment in a line: Effect on growth of SW620 cells (cell counting, trypan blue). Conditions: for IC50: SW620 colorectal carcinoma cells, 48 h treatment, 0.2% FBS, cumulative concentration response curve. In kind it is cell-based, Human. The method, then:
Human SW620 colorectal carcinoma cells were obtained from the American Type Culture Collection (ATCC) and maintained in Leitbovitz's L-15 medium containing 10% FBS, 10 mM HEPES, 2.2 g/L Na2C03 and 10 units/ml penicillin, 100 μg/ml streptomycin. Cells were grown in a 5% CO2 incubator at 37° C. A predefined number of SW620 cells were allowed to grow in 24 wells plates (1×10^4 cells/well) for 3 days until cells reached 80% confluence. Then, cells were starved in Leitbovitz's medium without FBS for 8 h. Then, the culture medium was replaced with Leitbovitz+0.2% FBS and different concentrations of MAG-DHA, MAG-EPA or MAG-DPA (0.1, 0.3, 1, 3, 10, 30 and 100 μM) were added to each well. Culture media were changed every 24 h and cells were treated for 48 h. After 48, the medium was removed from the culture plates and 0.05% trypsing EDTA was used to detach the cells from the surface of the culture plates. The harvested cells were counted, both the viable and dead ones, using a Countess Automated Cell Counter (Invitrogen Inc.). Briefly, for each condition an appropriated cell dilution was prepared from the harvested cells and an aliquot was mixed with an equal volume of 0.4% trypan blue, and 10 μl was transferred into each side of a Countess™ chamber slide. All concentrations tested were performed in triplicata and were representative of 5 independent experiment.
FIG. 2 represents an in vitro cumulative concentration response curves (CCRC) of MAG-DHA, MAG-EPA and MAG-DPA ([…]) on SW620 cell growth.

The test system of data set [1] is A549 human cancer cell line. Put plainly: In vivo tumor xenograft experiment: tumor tissue fatty acid composition after oral MAG-DHA. The note with it: A549 xenografts in female CD-1 nude mice; per os 618 mg/kg daily for 48 days; tumors harvested 24 hours after treatment completion; HPLC-MS. As to the method: Female CD-1 nude mice were obtained from Charles River Laboratories (Montreal, Qc, Canada). All studies involving mice were approved by the institutional animal care committee (Protocol: #237-10). Human A549 xenografts were established in 4-week-old female CD-1 nude mice. Mice were inoculated with 0.2 ml of a solution of 1×10^6 A549 cells subcutaneously on the right flank. Mice were randomly assigned into 3 groups, control (untreated), corn oil and MAG-DHA (CA2672513, CA2677670) treated (n=6 per group). Corn oil and MAG-DHA were administrated per os (618 mg/kg) daily following cell inoculation. Treatments were continued for 48 days. Mice were sacrificed when tumor volume reached ≈1.5 cm3 in the control group. Tumor tissues were harvested 24 hours after treatment completion. Tumor tissue fatty acids compositions were measured using a high-performance liquid chromatography (HPLC)-MS method [Gagne S and al. J Lipid Res 2007 January; 48(1):252-9] modified to detect complete fatty acid composition. Data were acquired in SIM mode corresponding to the following fatty acids: C20:4 (AA), C20:5 (EPA), C22:5 (DPA), C22:6 (DHA). The linear calibration curves were obtained in the concentration range of 2 to 500 μg/ml
FIG. 1 represents the fatty acids compositions of tumors after MAG-DHA oral supplementation.

For orientation: IC50 means the midpoint of a concentration-inhibition curve. Lower therefore signals higher potency.

In the case of `CC/C=C\C/C=C\C/C=C\C/C=C\C/C=C\CCCC(=O)OCC(O)CO` (stereo not drawn) [MAG-EPA, sn1(3)-all-cis-5,8,11,14,17-eicosapentaenoylglyceride], the IC50 in the data set with SW620 cells (Homo sapiens, SW-620, 48 h) worked out at 3200 nM.
In the data set with SW620 cells, `CC/C=C\C/C=C\C/C=C\C/C=C\C/C=C\CCCCCC(=O)OCC(O)CO` (stereo not drawn) [MAG-DHA, sn1(3)-all-cis-4,7,10,13,16,19-docosahexaenoylglyceride] gave an IC50 of 2900 nM. The “fatty acids compositions of tumors (EPA, DHA, DPA) compared to control and corn oil groups” value in data set [1] was “significant increase in EPA, DHA and DPA”.
Take `CC/C=C\C/C=C\C/C=C\C/C=C\C/C=C\CCCCCC(=O)OCC(O)CO` (stereo not drawn) [MAG-DPA, sn1(3)-all-cis-7,10,13,16,19-docosapentaenoylglyceride]: the “times more active than MAG-EPA or MAG-DHA” value in the data set on SW620 cells (SW620 cell growth, comparison of IC50 values) was found to be 10 times. Besides, the midpoint of inhibition in the data set with SW620 cells, the IC50, lay at 370 nM.

Values taken from patent publication US9447020B2, “Polyunsaturated fatty acid monoglycerides, derivatives, and uses thereof” (SCF PHARMA INC., priority 2013, dated 2016).
